Experimental data as given in patent EP0833161A1, “Method for maintaining a continuously-saturated level of ascorbic acid in a patient's body” (Ordman, Alfred B., priority 1996, dated 1998).

How the values were obtained:
[1] = Effect of single daily dose of vitamin C on total 24-hour urinary excretion (DCIP assay); format: in vivo, human
Protocol: In order to determine how daily dosages related to total excretion and whether high daily doses would alter the rate of excretion after a week, groups of test subjects took either 0, 0.25, 1, or 2 gram doses of vitamin C at 8 am daily for 8 consecutive days. All urine was collected and pooled on day 1 and on day 8. The concentration was assayed and the total amount of vitamin C excreted during the 24-hour period was determined, as shown in Fig. 1.
(§1) Vitamin C was assayed by the 2,6-dichlorophenolindophenol (DCIP) assay (see Omaye, T. S. et al. "Selected Methods for the Determination of Ascorbic Acid in Animal Cells," in Methods Enzymol.: Vitamins and Coenzymes, Vol. 62, edited by McCormick, D. B. and L. D. Wright, New York, Academic Press, 1979, pp. 3-11). Samples diluted to 0-40 µg ascorbic acid with 5% phosphoric acid were assayed in a citrate/acetate buffer by reaction with DCIP, and the color at 520 nm compared with standards. Samples were assayed in duplicate and each experiment was repeated.
Vitamin C was administered daily to five individuals at 8 am for eight consecutive days. All urine for each individual was collected during the first and last 24-hour periods and the total amount of vitamin C excreted in the urine was determined by DCIP assay.

[2] = Rate of urinary excretion of a single daily dose of vitamin C, every micturition assayed (DCIP assay); format: in vivo, human
Protocol: In order to determine how rapidly vitamin C is excreted, several individuals took 2 grams of vitamin C daily (single dose) for 8 consecutive days, and collected samples and measured the volume of every micturition during the first and last day. The experiment was repeated with the same individuals after a seven-day rest. Each sample was analyzed to determine the time period, concentration range, and total urinary excretion of vitamin C. The results arc shown in Fig. 2 for three representative individuals. Vitamin C concentration in the urine increased after 4 hours from time of intake and remained elevated for a total of 12 hours, consistent with the hypothesis that vitamin C levels in the body are not elevated for an entire 24 hour period by a single daily dose.
as §1
Fig. 2 illustrates the effect of two grams of daily single-dose vitamin C taken orally for eight days, followed by six days with no intake, and then by eight more days of two grams taken daily in a single dose. Each micturition during the first and last 24 hours of each eight-day period was collected and assayed to determine the total mass of vitamin C excreted. Figures 2a-2c represent excretion from three different individuals.

[3] = Effect of twice-daily doses of vitamin C on urinary output (DCIP assay); format: in vivo, human; conditions: for urinary excretion: one individual
Protocol: Twice-daily doses of 500 mg were sufficient to elevate vitamin C in the urine continuously as shown for 5 individuals in Fig. 4.
as §1
In order to achieve such sustained presence of vitamin C in urine, it is instead necessary to take it at least twice daily, as shown in Fig. 3. Different dosages (from 0.25 to 2.0 grams) of vitamin C were administered to a representative subject every 12 hours, at times 0 and 12 hour in the figure, on four separate days of a four week period. The mass of vitamin C present in the urine was measured at every micturition. The individual was tested one day of the week for four consecutive weeks with progressively increasing dosages followed by six-day periods of rest. As illustrated by the figure, taking at least 500 mg twice daily led to continuously elevated levels of vitamin C in the urine tested.
Each micturition during the entire 24 hours was collected and the total mass of vitamin C excreted by each subject was measured by the DCIP assay. In yet another experiment, two daily doses of 0.5 grams of vitamin C were taken daily for 8 days, then no pills were taken for a week, and then 0.5 g daily were taken again for another 8 days. Each micturition during the first and last 24 hr of each 8 day period was collected and assayed to determine the total mass of vitamin C excreted.

[4] = 500 mg dose, average person, within the first 12 hr after ingestion; cited from earlier work

## O=C1O[C@H]([C@@H](O)CO)C(O)=C1O [vitamin C, ascorbic acid]
[1]; 0, 0.25, 1 or 2 gram doses at 8 am daily, 24-hour pooled urine
  rate of urinary excretion versus daily dose: increased with increasing daily doses
[1]; in vivo
  intake rate at which a consistently elevated urinary level (greater than SD) begins: 250-500 mg per day
  one-time dose necessary for detectable excretion: 500 mg
  vitamin C levels in urine: no detectable vitamin C levels in urine
[1]; single daily dose for 8 consecutive days, 24-hour pooled urine
  amount excreted on day 8 compared with day 1: similar
[2]; 2 grams daily, single dose
  share of ingested vitamin C detected in the urine: only a small percentage
[2]; 2 grams daily, single dose, 8 consecutive days
  excretion pattern, first versus last day: No noticeable difference
[2]; in vivo
  time from intake after which vitamin C concentration in the urine increased: 4 h
  total time vitamin C concentration in the urine remained elevated: 12 h
[3]; 250 mg every 12 hours
  urinary excretion: did not cause detectable excretion in amounts exceeding normal quantities
[3]; 500 mg or higher (up to 2000 mg) every 12 hours
  urinary excretion: continuously-detectable elevated levels of excretion
[3]; 500 mg twice daily for a week, first and last day
  vitamin C in the urine: remains continuously elevated
[4]
  fraction of dose absorbed into the body: about 60%
